Source: US20130261077A1 (priority 2012, published 2013)

Molecular target: T1, FimH-CRD (Escherichia coli, UniProt P08191)
T1 construct: The first 177 amino acids of the FimH protein; thrombin tag (printed as 'fusion protein with thrombin') (cleaved yes); made in house; host or cells: bacteria (pET21b plasmid)
Assay: Competitive binding assay by fluorescence polarization, assay 1 (compounds prepared by manual serial dilution)
Description: The first 177 amino acids of the FimH protein were expressed as a fusion protein with thrombin in a pET21b plasmid in bacteria. This FimH protein sequence contains the carbohydrate recognition domain (CRD) and shall be termed FimH-CRD. Following bacterial expression of the protein, the FimH-CRD protein was purified to homogeneity and the thrombin tag removed by protease cleavage. A competitive binding assay by fluorescence polarization was performed using 5 nM of the Alexa 647 mannoside probe and 60 nM of the FimH-CRD. The samples are assayed in a low volume 384 well microtiter plate in a final volume of 20 μl. The final assay buffer conditions are the following, 50 mM Tris-Cl, ph 7.0, 100 mM NaCl, 1 mM EDTA, 5 mM β-mercaptoethanol, 0.05% BSA and 2.5% DMSO. Two assays are performed for FimH, termed assay 1 or assay 2. The assay conditions are the same for both assays except the following: assay 1 has compounds prepared by manual dilution in a serial dilution factor with 12-point dose response while assay 2 has compounds prepared by a robotics system also through a serial dilution factor (12 point dose response) and initially prepared in duplicate in 384 well-Corning polypropylene round bottom plates. The assay 2 plates have compound which is then frozen and must be thawed prior to use. Initially the Alexa 647 probe and the FimH-CRD are added to the assay buffer and then 0.5 μl of test compound (assay 1 or 2) between 0.4 nM to 75 μM final concentration are added (12 point titration with 3-fold serial dilution). Control wells for the Alexa 647 probe are prepared with the same conditions except for the addition of the FimH-CRD protein. Plates are then incubated for 5 hrs at room temperature in the dark and under humid conditions to prevent drying. Plates are read using the SpectraMax Paradigm multi-mode plate reader and the appropriate fluorescent polarization detection cartridge (Alexa-647).
Alexa 647 mannoside probe is prepared using the similar procedure reported for FAM mannoside (Han, Z. et. al., 2010, J. Med. Chem., 53, 4779) and is described in the scheme below.
To a blue colored stirred solution of (2S,3S,4S,5S,6R)-2-(4-aminobutoxy)-6-(hydroxymethyl)tetrahydropyran-3,4,5-triol (2.21 mg, 0.009 mmol) and the (2E)-2-[(2E,4E)-5-[3,3-dimethyl-5-sulfonato-1-(3-sulfonatopropyl)indol-1-ium-2-yl]penta-2,4-dienylidene]-3-[6-(2,5-dioxopyrrolidin-1-yl)oxy-6-oxo-hexyl]-3-methyl-1-(3-sulfonatopropyl)indoline-5-sulfonate (Potassium Ion (3)) (4.9 mg, 0.0044 mmol) in DMF (44 μL) is added Et3N (5.4 mg, 7.0 μL, 0.053 mmol) at RT. The solution is stirred at room temperature over night, concentrated, dissolved in water and purified on 12 g C-18 silica gel cartridge on Isolera system using acetonitrile in water (0 to 40%, 10 CV) and followed by lyophilization to afford Alexa 647 mannoside probe (3.3 mg, 34%) as deep blue solid.
The Kd values of the compounds are determined from dose response curves using twelve concentrations per compound in duplicate. Curves are fitted to data points using Fluorescence Polarization competitive displacement analysis, and Kds are interpolated from the resulting curves using GraphPad Prism software, version […] (GraphPad software Inc., San Diego, Calif., USA).

T1 sequence (P08191 22-177): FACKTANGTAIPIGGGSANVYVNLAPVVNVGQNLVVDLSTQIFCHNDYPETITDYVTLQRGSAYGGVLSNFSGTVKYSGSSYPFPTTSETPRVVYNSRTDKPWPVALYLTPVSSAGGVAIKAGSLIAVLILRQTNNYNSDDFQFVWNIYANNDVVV

| Structure (SMILES) | IC50 | Kd |
| --- | --- | --- |
| CNC(=O)c1cc(C(=O)NC)cc(-c2cccc([C@H]3O[C@H](CO)[C@@H](O)[C@H](O)[C@@H]3O)c2)c1 [Compound 63, N^3,N^5-dimethyl-3′-((2R,3S,4R,5S,6R)-3,4,5-trihydroxy-6-(hydroxymethyl)tetrahydro-2H-pyran-2-yl)-[1,1′-biphenyl]-3,5-dicarboxamide] | 19 nM | 25.4 ± 14.4 nM |
| COC(=O)Cc1cccc(-c2cccc([C@H]3O[C@H](CO)[C@@H](O)[C@H](O)[C@@H]3O)c2)c1 [Compound 65, Methyl 2-(3′-((2R,3S,4R,5S,6R)-3,4,5-trihydroxy-6-(hydroxymethyl)tetrahydro-2H-pyran-2-yl)-[1,1′-biphenyl]-3-yl)acetate] | 18 nM | 5.2 ± 0.1 nM |
| COC(=O)Cc1ccccc1-c1cccc([C@H]2O[C@H](CO)[C@@H](O)[C@H](O)[C@@H]2O)c1 [Compound 66, Methyl 2-(3′-((2R,3S,4R,5S,6R)-3,4,5-trihydroxy-6-(hydroxymethyl)tetrahydro-2H-pyran-2-yl)-[1,1′-biphenyl]-2-yl)acetate] | 24 nM | 14.3 ± 6.6 nM |
| OC[C@H]1O[C@H](c2ccc(Cl)c(O)c2)[C@@H](O)[C@@H](O)[C@@H]1O [Compound 67, (2R,3S,4R,5S,6R)-2-(4-chloro-3-hydroxyphenyl)-6-(hydroxymethyl)tetrahydro-2H-pyran-3,4,5-triol] | 106 nM | 21 ± 4.3 nM |
| O=C(Nc1cccs1)Oc1cccc([C@H]2O[C@H](CO)[C@@H](O)[C@H](O)[C@@H]2O)c1 [Compound 69, 3-((2R,3S,4R,5S,6R)-3,4,5-trihydroxy-6-(hydroxymethyl)tetrahydro-2H-pyran-2-yl)phenyl thiophen-2-ylcarbamate] | 66 nM | 13.1 ± 0.7 nM |
| O=C(Nc1ccc(F)cc1)Oc1cccc([C@H]2O[C@H](CO)[C@@H](O)[C@H](O)[C@@H]2O)c1 [Compound 70, 3-((2R,3S,4R,5S,6R)-3,4,5-trihydroxy-6-(hydroxymethyl)tetrahydro-2H-pyran-2-yl)phenyl (4-fluorophenyl)carbamate] | 46 nM | 11.6 ± 4.2 nM |
| CN(C)c1ccc(NC(=O)Oc2cccc([C@H]3O[C@H](CO)[C@@H](O)[C@H](O)[C@@H]3O)c2)cc1 [Compound 71, 3-((2R,3S,4R,5S,6R)-3,4,5-trihydroxy-6-(hydroxymethyl)tetrahydro-2H-pyran-2-yl)phenyl (4-(dimethylamino)phenyl)carbamate] | 67 nM | 14.6 ± 2.3 nM |
| C[C@@H](NC(=O)Oc1cccc([C@H]2O[C@H](CO)[C@@H](O)[C@H](O)[C@@H]2O)c1)c1ccccc1 [Compound 72, 3-((2R,3S,4R,5S,6R)-3,4,5-trihydroxy-6-(hydroxymethyl)tetrahydro-2H-pyran-2-yl)phenyl (R)-1-phenylethylcarbamate] | 60 nM | 16.2 ± 5.4 nM |
| OC[C@H]1O[C@H](c2cccc(C#Cc3cc(Cl)cc(Cl)c3)c2)[C@@H](O)[C@@H](O)[C@@H]1O [Compound 92, (2R,3S,4R,5S,6R)-2-[3-[2-(3,5-Dichlorophenyl)ethynyl]phenyl]-6-(hydroxymethyl)tetrahydropyran-3,4,5-triol] | – | 24.9 ± 11.3 nM |
| COc1ccc([C@H]2O[C@H](CO)[C@@H](O)[C@H](O)[C@@H]2O)cc1-c1ccc(-c2nnc(C)o2)cc1 [Compound 132, (2R,3S,4R,5S,6R)-2-(hydroxymethyl)-6-[4-methoxy-3-[4-(5-methyl-1,3,4-oxadiazol-2-yl)phenyl]phenyl]tetrahydropyran-3,4,5-triol] | – | 6.9 ± 0.02 nM |
| Cc1nnc(-c2ccc(C#Cc3cccc([C@H]4O[C@H](CO)[C@@H](O)[C@H](O)[C@@H]4O)c3)cc2)o1 [Compound 133, (2R,3S,4R,5S,6R)-2-(hydroxymethyl)-6-[3-[2-[4-(5-methyl-1,3,4-oxadiazol-2-yl)phenyl]ethynyl]phenyl]tetrahydropyran-3,4,5-triol] | – | 6.1 ± 1.4 nM |
| Cc1nnc(-c2ccc(C#Cc3ccc([C@H]4O[C@H](CO)[C@@H](O)[C@H](O)[C@@H]4O)cc3)cc2)o1 [Compound 134, (2R,3S,4R,5S,6R)-2-(hydroxymethyl)-6-[4-[2-[4-(5-methyl-1,3,4-oxadiazol-2-yl)phenyl]ethynyl]phenyl]tetrahydropyran-3,4,5-triol] | – | 54.2 ± 17 nM |
| OC[C@H]1O[C@H](c2cccc(/C=C\c3ccccc3)c2)[C@@H](O)[C@@H](O)[C@@H]1O [Compound 139, (2R,3S,4R,5S,6R)-2-(hydroxymethyl)-6-[3-[(Z)-styryl]phenyl]tetrahydropyran-3,4,5-triol] | – | < 5 nM |
| CNC(=O)c1cccc(COc2ccc(C3O[C@H](CO)[C@@H](O)[C@H](O)[C@@H]3O)cc2)c1 (some centres unmarked) [Compound 248] | – | 14 ± 8.4 nM |
| CNC(=O)c1ccc2nc(Oc3cccc([C@H]4O[C@H](CO)[C@@H](O)[C@H](O)[C@@H]4O)c3)sc2c1 [Compound 255, N-methyl-2-[3-[(2R,3S,4R,5S,6R)-3,4,5-trihydroxy-6-(hydroxymethyl)tetrahydropyran-2-yl]phenoxy]-1,3-benzothiazole-6-carboxamide] | – | 8.7 ± 2 nM |
| OC[C@H]1O[C@H](O[C@@H]2[C@H](O)[C@@H](c3cccc(O)c3)O[C@H](CO)[C@H]2O)[C@@H](O)[C@@H](O)[C@@H]1O [Compound 265, (2R,3S,4S,5S,6R)-2-[(2R,3R,4R,5R,6R)-3,5-Dihydroxy-2-(hydroxymethyl)-6-(3-hydroxyphenyl)tetrahydropyran-4-yl]oxy-6-(hydroxymethyl)tetrahydropyran-3,4,5-triol] | 162 nM | 52.1 ± 13.8 nM |
| OC[C@H]1O[C@H](O[C@@H]2[C@H](O)[C@@H](c3ccc(O)cc3)O[C@H](CO)[C@H]2O)[C@@H](O)[C@@H](O)[C@@H]1O [Compound 266, (2R,3S,4S,5S,6R)-2-[(2R,3R,4R,5R,6R)-3,5-Dihydroxy-2-(hydroxymethyl)-6-(4-hydroxyphenyl)tetrahydropyran-4-yl]oxy-6-(hydroxymethyl)tetrahydropyran-3,4,5-triol] | 59 nM | 21.3 ± 6.2 nM |
| CNC(=O)c1ccc(Oc2cccc([C@H]3O[C@H](CO)[C@@H](O)[C@H](O[C@H]4O[C@H](CO)[C@@H](O)[C@H](O)[C@@H]4O)[C@@H]3O)c2)cc1 [Compound 267, 4-[3-[(2R,3R,4R,5R,6R)-3,5-Dihydroxy-6-(hydroxymethyl)-4-[(2R,3S,4S,5S,6R)-3,4,5-trihydroxy-6-(hydroxymethyl)tetrahydropyran-2-yl]oxy-tetrahydropyran-2-yl]phenoxy]-N-methyl-benzamide] | 68 nM | 12.8 ± 8 nM |
| CNC(=O)c1cccc(Oc2ccc([C@H]3O[C@H](CO)[C@@H](O)[C@H](O[C@H]4O[C@H](CO)[C@@H](O)[C@H](O)[C@@H]4O)[C@@H]3O)cc2)c1 [Compound 268, 3-[4-[(2R,3R,4R,5R,6R)-3,5-Dihydroxy-6-(hydroxymethyl)-4-[(2R,3S,4S,5S,6R)-3,4,5-trihydroxy-6-(hydroxymethyl)tetrahydropyran-2-yl]oxy-tetrahydropyran-2-yl]phenoxy]-N-methyl-benzamide] | 77 nM | 19 ± 3.8 nM |
| CNC(=O)c1cccc(Oc2cccc([C@H]3O[C@H](CO)[C@@H](O)[C@H](O[C@H]4O[C@H](CO)[C@@H](O)[C@H](O)[C@@H]4O)[C@@H]3O)c2)c1 [Compound 269, 3-[3-[(2R,3R,4R,5R,6R)-3,5-Dihydroxy-6-(hydroxymethyl)-4-[(2R,3S,4S,5S,6R)-3,4,5-trihydroxy-6-(hydroxymethyl)tetrahydropyran-2-yl]oxy-tetrahydropyran-2-yl]phenoxy]-N-methyl-benzamide] | 10 nM | < 5 nM |
| OC[C@H]1O[C@H](O[C@@H]2[C@H](O)[C@@H](c3cccc(Oc4ccc(F)cc4)c3)O[C@H](CO)[C@H]2O)[C@@H](O)[C@@H](O)[C@@H]1O [Compound 270, (2R,3S,4S,5S,6R)-2-[(2R,3R,4R,5R,6R)-2-[3-(4-Fluorophenoxy)phenyl]-3,5-dihydroxy-6-(hydroxymethyl)tetrahydropyran-4-yl]oxy-6-(hydroxymethyl)tetrahydropyran-3,4,5-triol] | 54 nM | 14.4 ± 2.6 nM |
